Drawing on BindingDB's records for doi:10.1016/s0028-3908(96)00171-2 (Smithkline Beecham Pharmaceuticals, 1997), this text covers Ki for one molecule.

The target in this experiment is 5-hydroxytryptamine receptor 6 (Homo sapiens, UniProt P50406).
5-hydroxytryptamine receptor 6, sequence (P50406 whole entry): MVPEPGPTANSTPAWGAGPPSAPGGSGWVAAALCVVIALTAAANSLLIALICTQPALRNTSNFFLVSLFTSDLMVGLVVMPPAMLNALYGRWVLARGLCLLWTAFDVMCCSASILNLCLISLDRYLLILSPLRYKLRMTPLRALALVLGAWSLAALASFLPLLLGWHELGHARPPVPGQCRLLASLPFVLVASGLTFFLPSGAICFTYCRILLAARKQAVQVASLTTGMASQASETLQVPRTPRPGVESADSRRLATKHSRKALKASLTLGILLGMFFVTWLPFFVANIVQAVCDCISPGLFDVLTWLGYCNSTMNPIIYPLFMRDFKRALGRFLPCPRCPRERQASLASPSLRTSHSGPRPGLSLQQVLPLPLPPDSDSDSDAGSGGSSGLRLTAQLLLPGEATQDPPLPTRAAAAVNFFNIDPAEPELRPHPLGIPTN

A word on the Ki: it is the equilibrium dissociation constant of an inhibitor or competing ligand from its target. Low values mean higher affinity, high ones lower affinity. Consider `CC(N)Cc1c[nH]c2ccc(OCc3cccs3)cc12` (stereo unspecified) [NSC_5311036], for which the Ki was found to be 398 nM.
